Earlier results, collected in publication PMC6151550, “Inhibitory Effect of Selaginellins from Selaginella tamariscina (Beauv.) Spring against Cytochrome P450 and Uridine 5′-Diphosphoglucuronosyltransferase Isoforms on Human Liver Microsomes” (Molecules : A Journal of Synthetic Chemistry and Natural …, 2017).

Tests used:
UGT1A1 = tested on: UGT1A1; design: method as in PMID 25216634; settings: read-out: Ki against UGT1A1-mediated SN-38 glucuronidation; cited from earlier work
CYP2C8 = settings: cited from earlier work

SMILES | Ki (UGT1A1) [µM] | IC50 (CYP2C8) [µM]
CC(C)=CCc1cc2c(cc1O)oc(=O)c1c3ccc(O)cc3oc21 [psoralidin] | 5.8 | 
Cc1c(C)c2c(c(C)c1O)CCC(C)(COc1ccc(CC3SC(=O)NC3=O)cc1)O2 (stereo not drawn) [troglitazone] |  | 2.3
